Measurements: PubChem BioAssay (NCI)
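A five-concentration, 48-hour dose response in 96-well plates underlies each endpoint, interpolated linearly between surrounding concentrations. GI50 marks 50% less growth. TGI denotes the concentration required for complete inhibition of growth.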

Key:
Test in all cases: NCI tumour cell line growth inhibition, 48 h
NCI-H23 lung = system: NCI-H23 lung
SNB-75 CNS = system: SNB-75 CNS
HS 578T breast = system: HS 578T breast
MOLT-4 leukemia = system: MOLT-4 leukemia
CAKI-1 renal = system: CAKI-1 renal
M14 melanoma = system: M14 melanoma
SK-MEL-28 melanoma = system: SK-MEL-28 melanoma
A498 renal = system: A498 renal
BT-549 breast = system: BT-549 breast
HL-60(TB) leukemia = system: HL-60(TB) leukemia

Row | Compound | TGI (NCI-H23 lung) [µM] | TGI (SNB-75 CNS) [µM] | TGI (HS 578T breast) [µM] | TGI (MOLT-4 leukemia) [µM] | TGI (CAKI-1 renal) [µM] | TGI (M14 melanoma) [µM] | TGI (SK-MEL-28 melanoma) [µM] | TGI (A498 renal) [µM] | TGI (BT-549 breast) [µM] | GI50 (NCI-H23 lung) [nM] | GI50 (SNB-75 CNS) [nM] | GI50 (HS 578T breast) [nM] | GI50 (MOLT-4 leukemia) [nM] | GI50 (CAKI-1 renal) [nM] | GI50 (M14 melanoma) [nM] | GI50 (SK-MEL-28 melanoma) [nM] | GI50 (BT-549 breast) [µM] | TGI (HL-60(TB) leukemia) [µM] | GI50 (A498 renal) [nM] | GI50 (HL-60(TB) leukemia) [nM]
1 | CCc1ccccc1NC(=O)/C=C/c1ccccc1 | > 100 | > 100 | > 100 | > 100 | > 100 | > 100 | > 100 | > 100 | > 100 | – | – | – | – | – | – | – | – | – | – | –
2 | NS(=O)(=O)c1ccc(N2N=C3c4ccccc4CC3C2c2cccs2)cc1 (stereo not drawn) | 48.7 | > 100 | 76.9 | > 100 | 38.2 | > 100 | > 100 | – | 51.7 | 20300 | 31100 | 28700 | 18900 | 19600 | 26000 | 75600 | 19.3 | – | – | –
3 | CCc1cccc(C)c1N1C(=O)C(=O)C(c2nc3ccccc3o2)C(=O)C1=O | > 100 | > 100 | – | > 100 | > 100 | > 100 | > 100 | > 100 | – | – | – | – | – | – | – | – | – | > 100 | – | –
4 | Cc1cccc2c1c1ccc3c(c1n2C)C(=O)C=CC3=O | 29.3 | 42.8 | – | 2.99 | 10.4 | 17.9 | 24.4 | 44.5 | – | – | – | – | – | – | – | – | – | 2.94 | – | –
5 | CCOC(=O)CCC1(C(=O)OCC)CCCC1=O (stereo not drawn) | > 100 | > 100 | – | > 100 | > 100 | > 100 | > 100 | > 100 | – | – | – | – | – | – | – | – | – | > 100 | – | –
6 | Cc1cc(C)nc(/C(=N\NC(N)=O)C(=O)Nc2nc3ccc(C)cc3s2)c1 | > 100 | > 100 | – | > 100 | > 100 | > 100 | > 100 | > 100 | – | – | – | – | – | – | – | – | – | > 100 | – | –
7 | COC(=O)CCC12CCC(=O)C1[C@@H](C(=O)OC)C[C@H]2C(=O)OC (stereo partly drawn) | > 100 | > 100 | – | > 100 | > 100 | > 100 | – | > 100 | – | – | – | – | – | – | – | – | – | > 100 | – | –
8 | Cc1ccc(Oc2ccccc2N)cc1 | > 100 | 60.6 | – | > 100 | – | > 100 | 80.2 | > 100 | – | – | – | – | – | – | – | – | – | 45 | – | –
9 | COc1ccc(OC(C(=O)O)C(C)C)c2c1CCCC2=O (stereo not drawn) | > 100 | – | – | > 100 | > 100 | > 100 | > 100 | > 100 | – | – | – | – | – | – | – | – | – | > 100 | – | –
10 | Cc1c(C(=O)/C=C/C=C/c2ccccc2)[n+](=O)c2ccccc2n1[O-] | 51.4 | > 100 | – | > 100 | > 100 | 45.9 | 54.6 | > 100 | – | – | – | – | – | – | – | – | – | > 100 | – | –
11 | O=[N+]([O-])c1cccc(-c2nc(-c3ccccc3)c(-c3ccccc3)[nH]2)c1 | > 100 | – | > 100 | > 100 | > 100 | > 100 | > 100 | > 100 | – | – | – | – | – | – | – | – | – | > 100 | – | –
12 | C#CCNC(=O)NCCCCC(NC(=O)OCc1ccccc1)C(=O)OCc1ccccc1 (stereo not drawn) | > 100 | > 100 | – | 51.9 | 97.3 | > 100 | > 100 | > 100 | – | – | – | – | – | – | – | – | – | 35.4 | – | –
13 | O=c1cccccc1NCCCCCCCNc1cccccc1=O | > 100 | > 100 | – | 53.4 | > 100 | 74.6 | – | – | – | – | – | – | – | – | – | – | – | 30 | – | –
14 | O=C(C#Cc1ccccc1)N1c2ccccc2CC1c1c[nH]c2ccccc12 (stereo not drawn) | 32.4 | 37.6 | – | 46.6 | 33.2 | 28.8 | 30.5 | 73 | – | – | – | – | – | – | – | – | – | 36.2 | – | –
15 | Cl/C(N=Nc1ccccc1)=N/Nc1ccccc1 | > 100 | – | – | > 100 | > 100 | – | > 100 | > 100 | – | – | – | – | – | – | – | – | – | > 100 | – | –
16 | NNc1cnn(-c2ccccc2)c(=O)c1Cl | > 100 | > 100 | – | > 100 | > 100 | > 100 | > 100 | > 100 | – | – | – | – | – | – | – | – | – | > 100 | – | –
17 | N#C/C(=C\c1cccc(O)c1O)C(N)=O | > 100 | 47.2 | – | > 100 | > 100 | > 100 | > 100 | > 100 | – | – | – | – | – | – | – | – | – | 31.1 | – | –
18 | CNc1ccc2ncccc2c1[N+](=O)[O-] | > 100 | > 100 | – | > 100 | > 100 | > 100 | > 100 | > 100 | – | – | – | – | – | – | – | – | – | > 100 | – | –
19 | O=C(Nc1ccc(F)cc1F)c1cc(Cl)ccc1O | 8.27 | 3.79 | 7.25 | – | 5.51 | 4.18 | 8.69 | 0.902 | 3.31 | 1600 | 1090 | 978 | – | 1310 | 446 | 754 | 0.62 | – | 257 | –
20 | CCn1c(-c2cc3c([nH]c4ccccc43)c(-c3cccc(O)c3)n2)n[nH]c1=S | 13.2 | 4.85 | 9.17 | 6.77 | – | 11.6 | 12.3 | 4.38 | 25.9 | 3110 | 1260 | 2210 | 2380 | – | 2570 | 2630 | 3.51 | – | 327 | –
21 | CCOC(=O)CN(Cn1cncn1)Cn1cncn1 | – | 91 | – | > 100 | > 100 | – | 37.1 | – | – | – | – | – | – | – | – | – | – | > 100 | – | –
22 | COc1ccc(C(=O)c2cc3c(N)c(C(=O)Nc4ccccc4)sc3nc2C)cc1 | > 100 | 5.92 | 67.5 | > 100 | > 100 | > 100 | – | 0.645 | > 100 | 2540 | 242 | 331 | 796 | 656 | 779 | – | 38.6 | 26.3 | 184 | 500
23 | O=C(O)c1cc(=O)c2c([nH]c3ccccc32)s1 | > 100 | > 100 | – | > 100 | > 100 | > 100 | > 100 | – | – | – | – | – | – | – | – | – | – | > 100 | – | –
